Measured values published in PubChem BioAssay (NCI).
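Tested at 5 concentrations; 48 h exposure; 96-well plates; endpoints linearly interpolated, else capped at highest concentration. GI50: concentration for 50% inhibition of growth. TGI is the concentration that stops growth completely.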

Tests used:
Assay in all cases: inhibition of tumour cell growth, NCI panel, 48 h
BT-549 breast = tested on: BT-549 breast
SW-620 colon = tested on: SW-620 colon
SK-MEL-2 melanoma = tested on: SK-MEL-2 melanoma
NCI/ADR-RES ovarian = tested on: NCI/ADR-RES ovarian
NCI-H460 lung = tested on: NCI-H460 lung
MOLT-4 leukemia = tested on: MOLT-4 leukemia
MDA-N = tested on: MDA-N
T-47D breast = tested on: T-47D breast
DMS 273 small cell lung = tested on: DMS 273 small cell lung
DLD-1 colon = tested on: DLD-1 colon
KM20L2 colon = tested on: KM20L2 colon
M19-MEL melanoma = tested on: M19-MEL melanoma
LXFL 529 NSCLC = tested on: LXFL 529 NSCLC
DMS 114 small cell lung = tested on: DMS 114 small cell lung

Compound	TGI (BT-549 breast) [µM]	TGI (SW-620 colon) [µM]	TGI (SK-MEL-2 melanoma) [µM]	TGI (NCI/ADR-RES ovarian) [µM]	TGI (NCI-H460 lung) [µM]	TGI (MOLT-4 leukemia) [µM]	TGI (MDA-N) [µM]	TGI (T-47D breast) [µM]	TGI (DMS 273 small cell lung) [µM]	TGI (DLD-1 colon) [µM]	TGI (KM20L2 colon) [µM]	TGI (M19-MEL melanoma) [µM]	TGI (LXFL 529 NSCLC) [µM]	TGI (DMS 114 small cell lung) [µM]	GI50 (SK-MEL-2 melanoma) [µM]	GI50 (NCI/ADR-RES ovarian) [µM]	GI50 (MOLT-4 leukemia) [µM]
Cc1cc(C)c(NC(=O)/C=C/c2ccccc2)c(C)c1	> 100	> 100	> 100	> 100	> 100	> 100	–	–	–	–	–	–	–	–	–	–	–
O=C1/C(=C/c2ccc(Cl)cc2)N=C(c2ccccc2)N1/N=C/c1ccccc1O	39.6	> 100	46.3	97.6	79.2	38.9	> 100	30.7	–	–	–	–	–	–	–	–	–
CCP(=O)(CC)C(Cl)(Cl)C(O)C(Cl)(Cl)Cl (stereo unspecified)	–	> 100	> 100	> 100	> 100	> 100	> 100	> 100	–	–	–	–	–	–	–	–	–
CN1C(=O)CN2C(Cl)(Cl)C2(c2ccccc2)c2cc(Cl)ccc21 (stereo unspecified)	–	> 100	> 100	–	> 100	91.9	–	–	> 100	> 100	> 100	> 100	> 100	> 100	–	–	–
NCCCn1c2c(c3ccc([N+](=O)[O-])cc3c1=O)C(=O)c1cc(F)ccc1-2	–	–	1.05	1.2	–	–	–	–	–	–	–	–	–	–	0.326	0.0412	< 0.01
